{
  "source": "a melting point compilation (Tetko et al.; mined from patent text by program, amines drawn as free bases though some values may be those of a salt)",
  "data": [
    {"units": {"melting point": "°C"}, "values": [
      {"smiles": "CCOC(=O)C(=O)c1ccccc1C(=O)c1ccc(Cl)cc1", "melting point": "79 to 81"},
      {"smiles": "FC(F)(F)c1cc(Nc2nc3ccccc3o2)ccc1Cl", "melting point": "199 to 200"},
      {"smiles": "Cc1ccc(-c2c(Cl)ncnc2OCCO)cc1", "melting point": "62 to 64"},
      {"smiles": "COc1ccc2c(c1OC)C(=O)C(O)=C(C)C2=O", "melting point": 218},
      {"smiles": "C[C@H](O)C#Cc1cc(CN2CCOCC2)cc2c(=O)c(C(=O)NCc3ccc(Cl)cc3)cn(C)c12", "melting point": "158 to 161"},
      {"smiles": "COc1cc(/C=C/C(=O)Oc2ccc(NC(C)=O)cc2)ccc1O", "melting point": "185 to 195"},
      {"smiles": "O=C(Nc1ccc(-n2nc(C(F)(F)F)cc2C(F)(F)F)cc1)c1ccccc1O", "melting point": "173 to 175"},
      {"smiles": "Oc1ccc2c(c1)CCCC(c1ccccc1)=C2c1ccc(OCCCCCCCl)cc1", "melting point": 193},
      {"smiles": "O=C(Oc1ccnc(OC(=O)c2ccccc2)c1)c1ccccc1", "melting point": "100 to 102"},
      {"smiles": "C=C(C)COc1cc2c(c(C)c1C)N(C=O)CC2", "melting point": "81 to 83"},
      {"smiles": "CCCCNC(=O)c1cccc(NC(=O)NS(=O)(=O)c2ccc(C)cc2)c1", "melting point": "125 to 128"},
      {"smiles": "CCOc1ccc(OC)cc1", "melting point": "30 to 31"},
      {"smiles": "OCC1=CCc2cc3ccccc3cc21", "melting point": "115 to 116"},
      {"smiles": "CC(C)(C)N1C(=O)[C@@H]2C[C@H]1CN2C(=O)[C@@H](O)[C@H](Cc1ccccc1)NC(=O)[C@H](CC(N)=O)NC(=O)OCc1ccccc1", "melting point": "112 to 115"},
      {"smiles": "CC(C)(C)c1cc(C(=O)c2cccnc2)cc(C(C)(C)C)c1O", "melting point": 144},
      {"smiles": "O=C(NC(Cc1ccc(OCC2CC2)cc1)C(=O)O)c1cn2cc(-c3ccc(Cl)cc3)ccc2n1", "note": "(stereo not drawn)", "melting point": 276},
      {"smiles": "Cc1oc(-c2ccccc2)nc1COCc1cccc(COc2cc(Cl)ccc2C(=O)O)c1", "melting point": 137},
      {"smiles": "CON1C=C2N=NC3=C(N2C1)N(c1ccccc1Cl)CC(C)=C3", "melting point": "198 to 200"},
      {"smiles": "COc1cc(S(C)(=O)=O)ccc1OCc1ccc(C2CCN(C(=O)OC(C)(C)C)CC2)cn1", "melting point": "135 to 138"},
      {"smiles": "C#Cc1ccc(C(=O)OC)c(O)c1", "melting point": 62},
      {"smiles": "C=CC[C@H](C(N)=O)[C@@H](CC(C)C)C(=O)NC1N=C(N2CCCCCC2)c2ccccc2N(C)C1=O", "note": "(stereo partly drawn)", "melting point": "232 to 237"},
      {"smiles": "COc1ccc(-c2nc(-c3ccc(F)cc3)c(-c3ccncc3)[nH]2)cc1", "melting point": "264 to 265"},
      {"smiles": "CCN(C)c1nc2cccc(C(=O)OC)c2n1Cc1ccc(-c2ccccc2C#N)cc1", "melting point": "66 to 69"},
      {"smiles": "CCOc1ccc(-c2nc(-c3ccc(OCC(=O)OC)c(C(=O)OC)c3)cs2)cc1OCC", "melting point": "96 to 97"},
      {"smiles": "CC(C)N1C(CO)=Cc2ccsc2S1(=O)=O", "melting point": "67 to 69"},
      {"smiles": "CC(=O)Nc1ccc(C2=NN(C(=O)CCl)C(C)Cc3cc4c(cc32)OCO4)cc1", "note": "(stereo not drawn)", "melting point": "138 to 140"},
      {"smiles": "CSc1ccc(-c2coc3ccc(-c4nnc(C)o4)cc23)cc1OC(F)(F)F", "melting point": "185 to 186"},
      {"smiles": "CC1(C)Nc2ncc(I)cc2N(Cc2cc(F)ccc2F)C1=O", "melting point": "198 to 201"},
      {"smiles": "CC(C)(O)c1ccc(-c2ccc(C(C)(C)O)cc2)cc1", "melting point": 161},
      {"smiles": "O=C(c1ccc(Cl)cc1)c1ccc(NCC2CO2)cc1", "note": "(stereo not drawn)", "melting point": "128 to 129"},
      {"smiles": "Cn1nc(OCc2ccccc2)cc1C=O", "melting point": "49.5 to 50.5"},
      {"smiles": "CCOC(=O)c1c(C)cc2nc(CO)n(-c3ccccc3Cl)c(=O)c2c1C", "melting point": "151 to 152"},
      {"smiles": "CC(C)(c1ccccc1)c1cccc(S(=O)(=O)Cl)c1", "melting point": "47.5 to 49"},
      {"smiles": "Cc1ncn(-c2ccc(NC(=O)OCc3ccccc3)cc2F)n1", "melting point": "153 to 155"},
      {"smiles": "O=C(O)[C@@H]1C[C@H](C2CCCCC2)CN1C(=O)CP(=O)(O)CCCCc1ccccc1", "melting point": "175 to 176"},
      {"smiles": "CC(C)(C)OC(=O)[C@H]1CCCN1CC(=O)N1CCC[C@@H]1C(=O)OC(C)(C)C", "melting point": "75 to 76"},
      {"smiles": "O=C1CCC(N2CCC(n3c(=O)[nH]c4ccccc43)CC2)CC1", "melting point": "221 to 223"},
      {"smiles": "Cc1cccc(Br)c1C(=O)c1sc(Nc2ccc(N3CCOCC3)cc2)nc1N", "melting point": "105 to 125"},
      {"smiles": "COc1ccc(-c2cc(=S)n(Cc3ccccc3)nc2-c2ccc(OC)cc2)cc1", "melting point": "135 to 149"},
      {"smiles": "CCN(CC)C(=O)COc1nc(-c2ccccc2)cc2ccccc12", "melting point": 102},
      {"smiles": "Cn1cnc2c1c(=O)n(CCCCCCO)c(=O)n2C", "melting point": "98 to 100"},
      {"smiles": "O=C(O)CCCCCCCCc1nc(-c2ccccc2)c(-c2ccccc2)o1", "melting point": "83 to 85"},
      {"smiles": "N#Cc1cccc(C(=O)c2ccccc2)c1", "melting point": "84 to 85"},
      {"smiles": "CC(=O)c1ccc(-c2c(C)c(NC(=O)CC(C)(C)C)c(C)c3c2OCC3c2ccc(C(C)C)cc2)s1", "note": "(stereo not drawn)", "melting point": "157 to 158"},
      {"smiles": "COC[C@H](C)NC(=O)c1c[nH]c2ncc(-c3nn(C)c4cc(F)c(F)cc34)nc12", "melting point": "295 to 297"},
      {"smiles": "COc1nc(-c2ccccc2)n(Cc2ccc(-c3ccccc3S(N)(=O)=O)cc2)c1C=O", "melting point": 188},
      {"smiles": "OCCCCCCCCOc1ccc(-c2ccccc2)cc1", "melting point": "101 to 103"},
      {"smiles": "CN(C)c1ccc(-c2nc(Cl)c(C#N)n2Cc2ccccc2)cc1", "melting point": "125 to 127"},
      {"smiles": "O=C(O)c1cccc2c1CCc1ccccc1S2", "melting point": "186 to 187"},
      {"smiles": "O=C(Nc1ccc(OCC2CCCO2)c([N+](=O)[O-])c1)OCCCl", "note": "(stereo not drawn)", "melting point": "84 to 86"},
      {"smiles": "COc1cc(COc2nc(-c3ccccc3)ncc2C=O)ccc1OCc1nc(-c2ccco2)oc1C", "melting point": "143 to 144"},
      {"smiles": "CCOC(=O)c1cccc(-c2nc(-c3ccc(C(C)(C)C)cc3)cs2)c1", "melting point": "96 to 97"},
      {"smiles": "CCc1nc2c(C)cc(C)nc2n1Cc1cccc(C(=Cc2nnn[nH]2)c2ccccc2)c1", "melting point": "187 to 195"},
      {"smiles": "CCOC(=O)CC(=O)c1cc(C(CC(C)C)NC(=O)Cc2ccc(NC(=O)Nc3ccccc3Cl)cc2)no1", "note": "(stereo not drawn)", "melting point": "150 to 152"},
      {"smiles": "Cc1c(C(=O)Nc2ccc(N3CCCN(CCO)CC3)c(C#N)c2)cnn1-c1ccc(F)cc1", "melting point": 124},
      {"smiles": "CCCCC[C@H]1CC[C@H](c2ncc(O)cn2)CC1", "melting point": "190 to 191"},
      {"smiles": "CC(=O)SC(CC(=O)N[C@@H](Cc1ccccc1)C(=O)O)C(=O)c1ccccc1", "note": "(stereo partly drawn)", "melting point": "110 to 112"},
      {"smiles": "COC(=O)c1cc(C(=O)c2cccc(Cl)c2)n(C)c1", "melting point": 127},
      {"smiles": "CCCCCNC(=O)NCCCCCOc1cccc2sc(NC(C)=O)nc12", "melting point": "61.6 to 61.8"},
      {"smiles": "COc1cc(OC)c2c(=O)[nH]c(-c3ccc(OCCNC(C)C)c(-c4ccc(C(=O)N(C)C)cc4)n3)nc2c1", "melting point": "214 to 215"},
      {"smiles": "CCC1CC(=Cc2ccc(N(CC)CC)cc2)C(=O)C(=Cc2ccc(N(CC)CC)cc2)C1", "note": "(stereo not drawn)", "melting point": 141},
      {"smiles": "CC(C)(C)c1ccc(CNC(=S)NC(C)(C)c2ccc(NS(C)(=O)=O)cc2)cc1", "melting point": "161 to 164"},
      {"smiles": "Cc1cccc(C)c1NC(=O)c1ccc(C(F)(F)F)cc1", "melting point": "206 to 207"},
      {"smiles": "O=C(Nc1n[nH]c2cc(Cl)ccc12)c1cc(Cl)cc(Cl)c1", "melting point": 240},
      {"smiles": "Cc1ccccc1OCCCc1sc(-n2ccnc2C)nc1-c1ccc(Cl)cc1", "melting point": "112 to 113"},
      {"smiles": "COC(=O)C1=C(C)NC(C)=C(C(=O)OCCN2C(=O)c3ccccc3C2=O)C1c1cccc(C)c1", "note": "(stereo not drawn)", "melting point": "188 to 190"},
      {"smiles": "COc1ccc(Cc2nc3n(c2Cc2ccc(OC)cc2)CCS3(=O)=O)cc1", "melting point": "231 to 232"},
      {"smiles": "CN1CCC(OC(c2cccc(N=[N+]=[N-])c2)c2nc3ccccc3[nH]2)CC1", "note": "(stereo not drawn)", "melting point": 53}
    ]}
  ]
}
